Reference: the supplement of paper PMC10331698
± gives the standard deviation of the averaged measurements.

How the values were obtained:
Test in all cases: level (log10 ratio to DMSO vehicle control); higher = higher biomarker level / cell amount than vehicle control
Details in all cases: in DMSO
[1] = compound: CC(C)(C)C(=O)CC(=O)C(F)(F)C(F)(F)C(F)(F)F [(Heptafluorobutanoyl)pivaloylmethane]
Method: (§1)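 BioMAP Diversity Plus panel of 12 human primary cell co-culture systems (3C, 4H, LPS, SAg, BT, BF4T, BE3C, CASM3C, HDF3CGF, KF3CT, MyoF, Mphg). Compounds were added 1 h before stimulation and left for 24 h (MyoF 48 h; BT 72 h for soluble read-outs or 6 d for IgG). Biomarkers were read by ELISA, cytotoxicity by SRB, PBMC viability and proliferation by Alamar Blue. Each well value was divided by the mean of 8 DMSO control wells on the same plate and log10 transformed; duplicate blinded samples were tested at 4 concentrations.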

[2] = compound: O=C(O)C(F)(F)C(F)(F)C(F)(F)C(F)(F)C(F)(F)C(F)(F)C(F)(F)C(F)(F)C(F)(F)C(F)(F)C(F)(F)C(F)(F)F [Perfluorotridecanoic acid]
Method: as §1

Perfluorohexanoic acid = compound: O=C(O)C(F)(F)C(F)(F)C(F)(F)C(F)(F)C(F)(F)F [Perfluorohexanoic acid]
Method: as §1

[3] = compound: O=P(O)(O)CCC(F)(F)C(F)(F)C(F)(F)C(F)(F)C(F)(F)C(F)(F)C(F)(F)C(F)(F)F [((Perfluorooctyl)ethyl)phosphonic acid]
Method: as §1

[4] = compound: O=S(=O)(O)C(F)(F)C(F)(F)C(F)(F)C(F)(F)C(F)(F)C(F)(F)C(F)(F)C(F)(F)F [Perfluorooctanesulfonic acid]
Method: as §1

[5] = compound: O=S(=O)(O)C(F)(F)C(F)(F)C(F)(F)C(F)(F)C(F)(F)C(F)(F)C(F)(F)C(F)(F)F [Potassium perfluorooctanesulfonate]
Method: as §1

Test System	level (log10) ([1]; 6700 nM)	level (log10) ([1]; 20000 nM)	level (log10) ([1]; 60000 nM)	level (log10) ([2]; 1500 nM)	level (log10) ([2]; 4400 nM)	level (log10) ([2]; 13000 nM)	level (log10) ([2]; 40000 nM)	level (log10) (Perfluorohexanoic acid; 6700 nM)	level (log10) (Perfluorohexanoic acid; 20000 nM)	level (log10) (Perfluorohexanoic acid; 60000 nM)	level (log10) ([3]; 6700 nM)	level (log10) ([3]; 20000 nM)	level (log10) ([3]; 60000 nM)	level (log10) ([4]; 6700 nM)	level (log10) ([4]; 20000 nM)	level (log10) ([4]; 60000 nM)	level (log10) ([5]; 6700 nM)	level (log10) ([5]; 20000 nM)	level (log10) ([5]; 60000 nM)
BE3C:CD87/uPAR	0.0035 ± 0.032	0.0235 ± 0.0078	-0.0045 ± 0.005	0.012 ± 0.038	-0.013 ± 0.0071	0.006 ± 0.018	0.0335 ± 0.03	-0.002 ± 0.0085	-0.0105 ± 0.00071	0.0205 ± 0.00071	0.0235 ± 0.025	0.04 ± 0.035	0.079 ± 0.038	0.0465 ± 0.005	0.081 ± 0.045	0.0355 ± 0.0021	0.0335 ± 0.022	0.081 ± 0.054	0.14 ± 0.025
BE3C:CXCL10/IP-10	0.006 ± 0.024	-0.0025 ± 0.022	-0.0055 ± 0.019	-0.0015 ± 0.029	-0.019 ± 0.027	-0.038 ± 0.03	-0.0365 ± 0.056	0.0095 ± 0.018	0.0125 ± 0.0092	0.0245 ± 0.011	-0.0055 ± 0.0064	-0.001 ± 0.0099	-0.0045 ± 0.0078	-0.0365 ± 0.013	-0.478 ± 0.054	-0.7725 ± 0.0035	-0.0455 ± 0.0035	-0.505 ± 0.0057	-0.589 ± 0.014
4H:SRB	-0.007 ± 0.0014	-0.005 ± 0.0071	-0.0095 ± 0.016	-0.0115 ± 0.0064	-0.022 ± 0.0014	-0.054 ± 0.042	-0.443 ± 0.037	-0.002 ± 0.0057	-0.0105 ± 0.00071	0.0045 ± 0.015	-0.0005 ± 0.0064	0.0025 ± 0.022	-0.055 ± 0.052	-0.0005 ± 0.012	-0.0065 ± 0.011	-0.0085 ± 0.023	-0.0105 ± 0.011	0.004 ± 0.024	-0.0095 ± 0.023
BE3C:CXCL8/IL-8	-0.0095 ± 0.018	-0.015 ± 0.021	-0.017 ± 0.076	-0.002 ± 0.045	0.01 ± 0.045	-0.0215 ± 0.00071	0.0115 ± 0.00071	0.0095 ± 0.042	0.0135 ± 0.00071	0.017 ± 0.021	0.0305 ± 0.033	0.019 ± 0.028	-0.001 ± 0.048	-0.0875 ± 0.0035	-0.136 ± 0.0021	-0.348 ± 0.25	-0.053 ± 0.065	-0.112 ± 0.035	-0.082 ± 0.024
BT:Secreted IgG	-0.0115 ± 0.016	-0.009 ± 0.017	-0.023 ± 0.02	0.001 ± 0.042	-0.0025 ± 0.067	-0.027 ± 0.052	-0.029 ± 0.02	0.0085 ± 0.00071	0.0155 ± 0.03	-0.023 ± 0.061	0.001 ± 0.02	0.0005 ± 0.0035	-0.02 ± 0.0057	-0.0005 ± 0.0078	0.0025 ± 0.021	-0.0315 ± 0.016	0.0115 ± 0.018	0.018 ± 0.0071	-0.0055 ± 0.005
SAg:Proliferation	-0.0415 ± 0.011	-0.033 ± 0.0057	-0.0835 ± 0.1	-0.019 ± 0.047	-0.0125 ± 0.005	-0.066 ± 0.023	-0.036 ± 0.031	0.0065 ± 0.011	0.003 ± 0.021	0.027 ± 0.0042	-0.023 ± 0.023	-0.03 ± 0.0071	-0.0345 ± 0.077	0.001 ± 0.031	0.0185 ± 0.011	0.0675 ± 0.00071	0.0005 ± 0.0021	0.0495 ± 0.0035	0.066 ± 0.051
3C:CD87/uPAR	-0.0255 ± 0.056	-0.0435 ± 0.026	-0.0255 ± 0.033	0.065 ± 0.025	0.0355 ± 0.039	0.066 ± 0.011	0.059 ± 0.016	-0.0065 ± 0.0035	-0.0115 ± 0.00071	-0.01 ± 0.0099	0.0455 ± 0.043	0.071 ± 0.025	0.0885 ± 0.059	0.04 ± 0.037	0.0285 ± 0.022	0.0235 ± 0.036	-0.0065 ± 0.076	0.002 ± 0.017	0.015 ± 0.048
4H:CCL26/Eotaxin-3	-0.002 ± 0.0014	0.004 ± 0.0057	0.0145 ± 0.016	-0.0145 ± 0.018	-0.0395 ± 0.033	-0.056 ± 0.0071	-0.0655 ± 0.033	0.0005 ± 0.005	-0.004 ± 0.0099	-0.015 ± 0.0071	-0.011 ± 0.0085	-0.025 ± 0.0057	-0.108 ± 0.033	-0.014 ± 0.0014	-0.032 ± 0.0028	-0.0595 ± 0.0064	0.0085 ± 0.015	-0.0495 ± 0.021	-0.0665 ± 0.037
SAg:CD38	0.0075 ± 0.097	0.017 ± 0.065	-0.0125 ± 0.00071	-0.017 ± 0.014	-0.037 ± 0.02	-0.0245 ± 0.018	-0.027 ± 0.0028	0.003 ± 0.023	-0.004 ± 0.0014	-0.0005 ± 0.025	-0.015 ± 0.024	-0.0155 ± 0.005	-0.0945 ± 0.023	-0.01 ± 0.021	-0.0075 ± 0.00071	-0.037 ± 0.018	-0.0085 ± 0.0092	-0.01 ± 0.013	-0.023 ± 0.02
BT:sIL-17F	-0.069 ± 0.082	-0.0005 ± 0.036	-0.119 ± 0.1	-0.0115 ± 0.1	-0.02 ± 0.048	0.0775 ± 0.067	0.004 ± 0.09	-0.081 ± 0.0014	-0.002 ± 0.081	-0.047 ± 0.031	-0.094 ± 0.081	0.035 ± 0.025	-0.0045 ± 0.088	-0.064 ± 0.14	-0.0825 ± 0.059	-0.009 ± 0.018	-0.085 ± 0.037	-0.06 ± 0.11	-0.072 ± 0.037
SAg:CXCL8/IL-8	-0.0195 ± 0.046	-0.062 ± 0.024	-0.098 ± 0.14	0.018 ± 0.072	-0.0025 ± 0.021	-0.001 ± 0.0057	0.0035 ± 0.09	-0.049 ± 0.052	-0.009 ± 0.038	0.0035 ± 0.084	0.022 ± 0.023	0.037 ± 0.03	0.052 ± 0.011	-0.015	0.01 ± 0.0057	0.041 ± 0.0085	-0.0055 ± 0.018	0.0145 ± 0.036	0.025 ± 0.027
LPS:CD141/Thrombomodulin	-0.013 ± 0.037	-0.0095 ± 0.042	0.0325 ± 0.0021	0.045 ± 0.016	0.0125 ± 0.0092	0.0335 ± 0.0035	-0.001 ± 0.016	0.0085 ± 0.012	0.0065 ± 0.026	0.007 ± 0.017	-0.02 ± 0.013	-0.049 ± 0.0085	0.0065 ± 0.028	-0.03 ± 0.0014	-0.01 ± 0.0071	-0.036 ± 0.031	-0.0225 ± 0.028	-0.0215 ± 0.023	-0.025 ± 0.044
SAg:SRB	-0.0035 ± 0.0092	-0.0025 ± 0.005	-0.031 ± 0.034	-0.0015 ± 0.011	-0.0095 ± 0.0035	-0.0045 ± 0.012	-0.0335 ± 0.026	-0.0055 ± 0.0035	-0.0135 ± 0.0035	-0.001 ± 0.0028	-0.01 ± 0.021	-0.042 ± 0.034	-0.125 ± 0.044	0.004 ± 0.0042	-0.0095 ± 0.0078	-0.0265 ± 0.011	-0.0055 ± 0.028	-0.0255 ± 0.035	-0.0335 ± 0.0035
BF4T:PAI-I	-0.0045 ± 0.0021	0.001 ± 0.0028	0.0085 ± 0.012	0.0025 ± 0.028	0.005 ± 0.017	0.007 ± 0.02	0.0235 ± 0.0021	0.011	0.004 ± 0.0028	0.0145 ± 0.0064	0.003 ± 0.0042	0.0055 ± 0.011	0.016 ± 0.021	-0.002 ± 0.0085	-0.0135 ± 0.0021	-0.02 ± 0.052	0.0015 ± 0.0092	-0.0045 ± 0.0078	0.007 ± 0.04
SAg:CXCL9/MIG	-0.002 ± 0.011	0.0015 ± 0.00071	0.002 ± 0.016	-0.002 ± 0.0028	-0.013	-0.016 ± 0.0028	0.0035 ± 0.018	-0.0005 ± 0.0064	-0.001 ± 0.0085	0.0055 ± 0.005	0.001 ± 0.0028	0.006 ± 0.0085	-0.0115 ± 0.023	-0.0035 ± 0.0035	0.0105 ± 0.012	0.005 ± 0.013	-0.0135 ± 0.00071	0.005 ± 0.0057	-0.0035 ± 0.019
